In US7485640B2, “Imidazopyrazinones as GABA-A receptor anxiolytics” (Merck Sharp & Dohme Limited, priority 2002, dated 2009) one finds melting point data, which are given here for 1 compound.

Each structure is given as a SMILES string.

A word on the melting point: it is the temperature, or range, at which the solid turns liquid.

The compound `CN1CCn2c(-c3ccc(F)c(-c4ccc(F)cc4C#N)c3)cnc2C1=O` [Example 22, 4,2′-Difluoro-5′-(7-methyl-8-oxo-5,6,7,8-tetrahydroimidazo[1,2-a]pyrazin-3-yl)biphenyl-2-carbonitrile] had a melting point of 224 °C.
